Data: patent US10370366B2 (Flatley Discovery Lab, LLC, priority 2013, dated 2019)

Biological target: T1, human F508del CFTR (Homo sapiens, UniProt P13569, DEL508-508)
T1 construct: expressed in transfected cells; host or cells: Fisher Rat Thyroid (FRT) cells
Test: CFTR-YFP High Throughput Assay
Assay type: cell-based
Details: FRT cells expressing human F508del CFTR and YFP; for Emax: EMax normalized to the positive control, read-out: % Efficacy
Outline: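 FRT cells stably co-expressing human F508del CFTR and halide-sensitive YFP-H148Q/I152L; for correction, compound (2 nM-40 μM) incubated 24-26 h at 37° C, washed, then stimulated 60-120 min at RT with 20 μM forskolin plus 30 μM potentiator P3. Iodide-induced YFP quench (Ex 500/Em 540 nm) recorded; quench rates least-squares fitted.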

T1 sequence (P13569 with tags, fused parts or gaps DEL508-508): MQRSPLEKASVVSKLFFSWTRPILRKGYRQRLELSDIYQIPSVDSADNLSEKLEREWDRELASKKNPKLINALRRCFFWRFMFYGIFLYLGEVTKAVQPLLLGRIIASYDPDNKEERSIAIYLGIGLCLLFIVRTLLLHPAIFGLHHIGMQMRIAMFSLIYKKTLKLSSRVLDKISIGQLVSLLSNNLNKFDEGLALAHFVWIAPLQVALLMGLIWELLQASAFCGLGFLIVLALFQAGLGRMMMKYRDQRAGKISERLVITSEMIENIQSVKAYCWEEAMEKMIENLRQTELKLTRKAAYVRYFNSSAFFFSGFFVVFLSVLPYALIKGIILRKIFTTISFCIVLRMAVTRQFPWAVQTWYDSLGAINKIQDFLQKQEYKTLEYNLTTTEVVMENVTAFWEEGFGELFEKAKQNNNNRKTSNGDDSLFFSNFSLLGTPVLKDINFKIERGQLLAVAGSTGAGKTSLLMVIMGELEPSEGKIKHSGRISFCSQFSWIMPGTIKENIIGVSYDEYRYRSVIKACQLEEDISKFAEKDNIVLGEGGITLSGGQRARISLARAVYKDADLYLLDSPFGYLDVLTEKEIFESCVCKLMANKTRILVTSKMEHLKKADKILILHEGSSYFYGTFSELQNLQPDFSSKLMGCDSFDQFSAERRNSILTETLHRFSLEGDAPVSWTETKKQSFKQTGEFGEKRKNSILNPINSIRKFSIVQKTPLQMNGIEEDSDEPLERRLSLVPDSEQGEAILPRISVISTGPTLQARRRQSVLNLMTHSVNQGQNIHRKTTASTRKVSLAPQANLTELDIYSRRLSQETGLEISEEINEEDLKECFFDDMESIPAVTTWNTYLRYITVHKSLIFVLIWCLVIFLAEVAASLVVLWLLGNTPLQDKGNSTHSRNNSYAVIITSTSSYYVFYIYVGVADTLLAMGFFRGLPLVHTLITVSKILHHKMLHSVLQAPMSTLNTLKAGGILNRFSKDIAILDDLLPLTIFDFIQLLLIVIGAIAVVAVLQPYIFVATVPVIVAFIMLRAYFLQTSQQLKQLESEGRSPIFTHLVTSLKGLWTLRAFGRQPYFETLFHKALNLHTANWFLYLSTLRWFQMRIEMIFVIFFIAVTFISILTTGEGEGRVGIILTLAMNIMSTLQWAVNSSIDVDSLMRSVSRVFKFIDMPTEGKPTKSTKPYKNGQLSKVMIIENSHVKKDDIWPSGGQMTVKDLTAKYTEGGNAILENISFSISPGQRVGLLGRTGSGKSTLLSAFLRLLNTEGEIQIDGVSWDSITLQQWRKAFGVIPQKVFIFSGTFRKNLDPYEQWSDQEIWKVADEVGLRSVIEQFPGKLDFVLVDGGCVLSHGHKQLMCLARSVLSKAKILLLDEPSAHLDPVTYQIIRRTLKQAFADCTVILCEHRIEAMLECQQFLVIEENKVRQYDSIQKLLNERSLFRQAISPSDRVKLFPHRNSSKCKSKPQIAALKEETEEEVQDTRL

Row | Structure (SMILES) | Emax | EC50
1 | CCc1ccc(N(CC)C(=O)Cn2nc(C(=O)Nc3cc(Cl)ccc3C(=O)OC)c3ccccc3c2=O)cc1 [Example 130, methyl 4-chloro-2-(3-(2-(ethyl(4-ethylphenyl)amino)-2-oxoethyl)-4-oxo-3,4-dihydrophthalazine-1-carboxamido)benzoate] | 30 to 80% | –
2 | CCN(C(=O)Cn1ncc2c(c1=O)c1ccccc1n2Cc1ccccn1)c1ccc2c(c1)OC(F)(F)O2 [Example 131, N-(2,2-difluorobenzo[d][1, 3]dioxol-5-yl)-N-ethyl-2-(1-oxo-5-(pyridin-2-ylmethyl)-1H-pyridazino[4,5-b]indol-2(5H)-yl)acetamide] | 30 to 80% | –
3 | CCN(C(=O)Cn1ncc2c(c1=O)c1ccccc1n2CCOC)c1ccc2c(c1)OC(F)(F)O2 [Example 132, N-(2,2-difluorobenzo[d][1,3]dioxol-5-yl)-N-ethyl-2-(5-(2-methoxyethyl)-1-oxo-1H-pyridazino[4,5-b]indol-2(5H)-yl)acetamide] | 30 to 80% | –
4 | CCN(C(=O)Cn1ncc2c(c1=O)c1ccccc1n2Cc1ccccc1)c1ccc2c(c1)OC(F)(F)O2 [Example 133, 2-(5-benzyl-1-oxo-1H-pyridazino[4,5-b]indol-2(5H)-yl)-N-(2,2-difluorobenzo[d][1,3]dioxol-5-yl)-N-ethylacetamide] | 30 to 80% | –
5 | CCN(C(=O)Cn1ncc2c(c1=O)c1ccccc1n2CCC(=O)OC)c1ccc2c(c1)OC(F)(F)O2 [Example 134, methyl 3-(2-(2-((2,2-difluorobenzo[d][1,3]dioxol-5-yl)(ethyl)amino)-2-oxoethyl)-1-oxo-1H-pyridazino[4,5-b]indol-5(2H)-yl)propanoate] | 30 to 80% | –
6 | CCN(C(=O)Cn1ncc2c(c1=O)c1ccccc1n2Cc1cccc(OC)c1)c1ccc2c(c1)OC(F)(F)O2 [Example 135, N-(2,2-difluorobenzo[d][1,3]dioxol-5-yl)-N-ethyl-2-(5-(3-methoxybenzyl)-1-oxo-1H-pyridazino[4,5-b]indol-2(5H)-yl)acetamide] | 30 to 80% | < 10 µM
7 | CCN(C(=O)Cn1ncc2c(c1=O)c1ccccc1n2Cc1ccc(OC)cc1)c1ccc2c(c1)OC(F)(F)O2 [Example 136, N-(2,2-difluorobenzo[d][1,3]dioxol-5-yl)-N-ethyl-2-(5-(4-methoxybenzyl)-1-oxo-1H-pyridazino[4,5-b]indol-2(5H)-yl)acetamide] | 30 to 80% | < 10 µM
8 | CCN(C(=O)Cn1ncc2c(c1=O)c1ccccc1n2CCCOC)c1ccc2c(c1)OC(F)(F)O2 [Example 137, N-(2,2-difluorobenzo[d][1,3]dioxol-5-yl)-N-ethyl-2-(5-(3-methoxypropyl)-1-oxo-1H-pyridazino[4,5-b]indol-2(5H)-yl)acetamide] | 30 to 80% | –
9 | CCN(C(=O)Cn1ncc2c(c1=O)c1ccccc1n2CCC#N)c1ccc2c(c1)OC(F)(F)O2 [Example 138, 2-(5-(2-cyanoethyl)-1-oxo-1H-pyridazino[4,5-b]indol-2(5H)-yl)-N-(2,2-difluorobenzo[d][1,3]dioxol-5-yl)-N-ethylacetamide] | 10 to 30% | > 20 µM
10 | CCN(C(=O)Cn1ncc2c(c1=O)c1ccccc1n2CC#N)c1ccc2c(c1)OC(F)(F)O2 [Example 139, 2-(5-(cyanomethyl)-1-oxo-1H-pyridazino[4,5-b]indol-2(5H)-yl)-N-(2,2-difluorobenzo[d][1,3]dioxol-5-yl)-N-ethylacetamide] | 30 to 80% | 10 to 20 µM
11 | CCN(C(=O)Cn1ncc2c(c1=O)c1ccccc1n2Cc1cccnc1)c1ccc2c(c1)OC(F)(F)O2 [Example 140, N-(2,2-difluorobenzo[d][1,3]dioxol-5-yl)-N-ethyl-2-(1-oxo-5-(pyridin-3-ylmethyl)-1H-pyridazino[4,5-b]indol-2(5H)-yl)acetamide] | 30 to 80% | –
12 | CCN(C(=O)Cn1ncc2c(c1=O)c1ccccc1n2Cc1ccccc1C#N)c1ccc2c(c1)OC(F)(F)O2 [Example 141, 2-(5-(2-cyanobenzyl)-1-oxo-1H-pyridazino[4,5-b]indol-2(5H)-yl)-N-(2,2-difluorobenzo[d][1,3]dioxol-5-yl)-N-ethylacetamide] | 30 to 80% | –
13 | CCN(C(=O)Cn1ncc2c(c1=O)c1ccccc1n2Cc1cccc(C#N)c1)c1ccc2c(c1)OC(F)(F)O2 [Example 142, 2-(5-(3-cyanobenzyl)-1-oxo-1H-pyridazino[4,5-b]indol-2(5H)-yl)-N-(2,2-difluorobenzo[d][1,3]dioxol-5-yl)-N-ethylacetamide] | 30 to 80% | –
14 | CCN(C(=O)Cn1ncc2c(c1=O)c1ccccc1n2Cc1ccncc1)c1ccc2c(c1)OC(F)(F)O2 [Example 143, N-(2,2-difluorobenzo[d][1,3]dioxol-5-yl)-N-ethyl-2-(1-oxo-5-(pyridin-4-ylmethyl)-1H-pyridazino[4,5-b]indol-2(5H)-yl)acetamide] | 30 to 80% | –
15 | CCN(C(=O)Cn1ncc2c(c1=O)c1ccccc1n2Cc1ccc(C#N)cc1)c1ccc2c(c1)OC(F)(F)O2 [Example 144, 2-(5-(4-cyanobenzyl)-1-oxo-1H-pyridazino[4,5-b]indol-2(5H)-yl)-N-(2-2-difluorobenzo[d][1,3]dioxol-5-yl)-N-ethylacetamide] | > 80% | 10 to 20 µM
16 | CCN(C(=O)Cn1ncc2c(c1=O)c1ccccc1n2Cc1ccc(C#N)c(F)c1)c1ccc2c(c1)OC(F)(F)O2 [Example 145, 2-(5-(4-cyano-3-fluorobenzyl)-1-oxo-1H-pyridazino[4,5-b]indol-2(5H)-yl)-N-(2,2-difluorobenzo[d][1,3]dioxol-5-yl)-N-ethylacetamide] | 30 to 80% | < 10 µM
17 | CCN(C(=O)Cn1ncc2c(c1=O)c1ccccc1n2Cc1ccc(C#N)cc1F)c1ccc2c(c1)OC(F)(F)O2 [Example 146, 2-(5-(4-cyano-2-fluorobenzyl)-1-oxo-1H-pyridazino[4,5-b]indol-2(5H)-yl)-N-(2,2-difluorobenzo[d][1,3]dioxol-5-yl)-N-ethylacetamide] | 30 to 80% | < 10 µM
18 | Cc1nc2ccc(N(C)C(=O)Cn3ncc4c(c3=O)c3ccccc3n4Cc3ccc(Cl)cc3)cc2o1 [Example 147, 2-(5-(4-chlorobenzyl)-1-oxo-1,5-dihydro-2H-pyridazino[4,5-b]indol-2-yl)-N-methyl-N-(2-methylbenzo[d]oxazol-6-yl)acetamide] | 30 to 80% | < 10 µM
19 | Cc1nc2ccc(N(C)C(=O)Cn3ncc4c(c3=O)c3ccccc3n4Cc3ccc(F)cc3)cc2o1 [Example 148, 2-(5-(4-fluorobenzyl)-1-oxo-1,5-dihydro-2H-pyridazino[4,5-b]indol-2-yl)-N-methyl-N-(2-methylbenzo[d]oxazol-6-yl)acetamide] | 30 to 80% | < 10 µM
20 | Cc1nc2ccc(N(C)C(=O)Cn3ncc4c(c3=O)c3ccccc3n4Cc3ccc(C#N)cc3)cc2o1 [Example 149, 2-(5-(4-cyanobenzyl)-1-oxo-1,5-dihydro-2H-pyridazino[4,5-b]indol-2-yl)-N-methyl-N-(2-methylbenzo[d]oxazol-6-yl)acetamide] | 30 to 80% | < 10 µM
21 | Cc1ccc(-n2nc(C(=O)N3CCCCC3)c3c4ccccc4n(C)c3c2=O)cc1 [Example 150, 5-methyl-1-(piperidine-1-carbonyl)-3-p-tolyl-3H-pyridazino [4,5-b]indol-4(5H)-one] | 30 to 80% | –
22 | CCN(C(=O)c1nn(-c2ccccc2)c(=O)c2c1c1ccccc1n2C)c1ccncn1 [Example 151, N-ethyl-5-methyl-4-oxo-3-phenyl-N-(pyrimidin-4-yl)-4,5-dihydro-3H-pyridazino[4,5-b]indole-1-carboxamide] | 30 to 80% | –
23 | Cc1ccc(-n2nc(C(=O)N(c3ccccc3)C(C)C)c3c4ccccc4n(C)c3c2=O)cc1 [Example 152, N-isopropyl-5-methyl-4-oxo-N-phenyl-3-(p-tolyl)-4,5-dihydro-3H-pyridazino[4,5-b]indole-1-carboxamide] | 30 to 80% | –
24 | Cc1ccc(-n2nc(C(=O)N(c3ccccc3)C3CC3)c3c4ccccc4n(C)c3c2=O)cc1 [Example 153, N-cyclopropyl-5-methyl-4-oxo-N-phenyl-3-(p-tolyl)-4,5-dihydro-3H-pyridazino[4,5-b]indole-1-carboxamide] | 30 to 80% | –
25 | Cc1ccc(-n2nc(C(=O)N(CC#N)c3ccccc3)c3c4ccccc4n(C)c3c2=O)cc1 [Example 154, N-(cyanomethyl)-5-methyl-4-oxo-N-phenyl-3-(p-tolyl)-4,5-dihydro-3H-pyridazino[4,5-b]indole-1-carboxamide] | 30 to 80% | –
26 | CCN(CC)C(=O)c1nn(-c2ccc(C)cc2)c(=O)c2c1c1ccccc1n2C [Example 155, N, N-diethyl-5-methyl-4-oxo-3-(p-tolyl)-4,5-dihydro-3H-pyridazino[4,5-b]indole-1-carboxamide] | 30 to 80% | –
27 | CCN(C(=O)c1nn(-c2ccc(C)cc2)c(=O)c2c1c1ccccc1n2C)c1ccccn1 [Example 156, N-ethyl-5-methyl-4-oxo-N-(pyridin-2-yl)-3-(p-tolyl)-4,5-dihydro-3H-pyridazino[4,5-b]indole-1-carboxamide] | 30 to 80% | –
28 | CCN(C(=O)c1nn(-c2ccc(C)cc2)c(=O)c2c1c1ccccc1n2C)c1cccnc1 [Example 157, N-ethyl-5-methyl-4-oxo-N-(pyridin-3-yl)-3-(p-tolyl)-4,5-dihydro-3H-pyridazino[4,5-b]indole-1-carboxamide] | 30 to 80% | –
29 | CCN(C(=O)c1nn(-c2ccccc2)c(=O)c2c1c1ccccc1n2C)c1ccncc1 [Example 158, N-ethyl-5-methyl-4-oxo-3-phenyl-N-(pyridin-4-yl)-4,5-dihydro-3H-pyridazino[4,5-b]indole-1-carboxamide] | 30 to 80% | –
30 | Cc1ccc(-n2nc(C(=O)N3CCCc4ccccc43)c3c4ccccc4n(C)c3c2=O)cc1 [Example 159, 5-methyl-1-(1,2,3,4-tetrahydroquinoline-1-carbonyl)-3-(p-tolyl)-3H-pyridazino[4,5-b]indol-4(5H)-one] | 30 to 80% | –
